Assay results from patent US10711004B2 (Genentech, Inc., priority 2018, dated 2020).
pIC50: −log10 of the molar value. Where two headings read alike, the source gives them in different places.

Target: human TRPA1 channel (Homo sapiens (Human), UniProt O75762)
Assay: hTRPA1 CHO Ca2+ FLIPR Tetra assay, block of cinnamaldehyde induced calcium influx
Assay type: cell-based
Details: CHO cells expressing TRPA1, Hill coefficient fixed to 1.5
Outline: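 Calcium-dye-loaded TRPA1-expressing CHO cells in HBSS/20 mM HEPES pH 7.4, 0.02% BSA were preincubated with compound for 10 or 90 min at room temperature. Calcium influx evoked by roughly an EC50 concentration of cinnamaldehyde was then read on FLIPR Tetra; IC50 came from curve fits with a fixed Hill coefficient.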

[1] = read-out: hTRPA1 IC50 (10 min), compounds incubated 10 minutes at room temperature before cinnamaldehyde agonist
[2] = read-out: hTRPA1 IC50 (90 min), compounds incubated 90 minutes at room temperature before cinnamaldehyde agonist

Chain of human TRPA1 channel (O75762 whole entry): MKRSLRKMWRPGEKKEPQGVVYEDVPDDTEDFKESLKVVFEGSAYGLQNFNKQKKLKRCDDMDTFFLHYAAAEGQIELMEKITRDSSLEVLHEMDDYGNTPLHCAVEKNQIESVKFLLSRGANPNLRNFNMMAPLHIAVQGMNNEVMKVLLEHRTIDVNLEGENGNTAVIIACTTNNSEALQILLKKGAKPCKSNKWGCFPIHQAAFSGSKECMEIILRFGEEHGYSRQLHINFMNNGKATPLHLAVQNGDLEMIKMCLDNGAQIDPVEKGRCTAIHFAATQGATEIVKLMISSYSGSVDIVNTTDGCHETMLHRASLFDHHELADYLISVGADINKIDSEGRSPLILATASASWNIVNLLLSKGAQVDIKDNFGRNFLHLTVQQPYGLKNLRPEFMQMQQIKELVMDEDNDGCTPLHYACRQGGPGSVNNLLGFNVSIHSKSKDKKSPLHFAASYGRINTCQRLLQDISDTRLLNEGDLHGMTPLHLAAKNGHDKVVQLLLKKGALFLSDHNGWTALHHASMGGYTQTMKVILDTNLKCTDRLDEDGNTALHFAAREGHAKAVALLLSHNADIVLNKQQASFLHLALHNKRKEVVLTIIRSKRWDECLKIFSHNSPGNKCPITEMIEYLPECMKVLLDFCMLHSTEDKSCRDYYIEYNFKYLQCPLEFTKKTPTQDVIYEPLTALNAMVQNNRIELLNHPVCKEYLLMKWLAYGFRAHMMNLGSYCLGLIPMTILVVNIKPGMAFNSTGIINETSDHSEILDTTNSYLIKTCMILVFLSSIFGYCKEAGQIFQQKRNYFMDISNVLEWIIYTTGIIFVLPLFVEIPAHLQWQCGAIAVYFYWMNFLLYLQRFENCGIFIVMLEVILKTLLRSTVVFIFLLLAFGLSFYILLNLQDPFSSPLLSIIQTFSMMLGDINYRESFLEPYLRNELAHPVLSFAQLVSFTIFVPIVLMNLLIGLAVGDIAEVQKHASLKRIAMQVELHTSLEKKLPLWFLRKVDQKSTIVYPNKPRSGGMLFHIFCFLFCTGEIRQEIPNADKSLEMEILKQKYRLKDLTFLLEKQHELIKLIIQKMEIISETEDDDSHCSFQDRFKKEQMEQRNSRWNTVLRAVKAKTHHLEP

Row | Structure (SMILES) | pIC50 [1] | pIC50 [2] | also measured
1 | N#Cc1ccc2c(=O)n(Cc3nc([C@@H]4[C@H]5C=C(c6ccccc6)C[C@H]54)no3)cnc2n1 [Example Compound 266, 4-oxo-3-[[3-[(1R,5R,6S)-3-phenyl-6-bicyclo[3.1.0]hex-2-enyl]-1,2,4-oxadiazol-5-yl]methyl]pyrido[2,3-d]pyrimidine-7-carbonitrile] | 7.26 | 7.41 | –
2 | Cn1cnc2ncn(Cc3nc([C@H]4[C@@H]5C=C(c6ccc7[nH]ncc7c6)C[C@@H]54)no3)c(=O)c21 [Example Compound 268, 7-methyl-1-[[3-[(1S,5S,6R)-3-(1H-indazol-5-yl)-6-bicyclo[3.1.0]hex-2-enyl]-1,2,4-oxadiazol-5-yl]methyl]purin-6-one] | 7.70 | 7.92 | –
3 | Cn1cnc2ncn(Cc3nc([C@H]4[C@@H]5C=C(c6ccc(F)cc6F)C[C@@H]54)no3)c(=O)c21 [Example Compound 269, 7-methyl-1-[[3-[(1S,5S,6R)-3-(2,4-difluorophenyl)-6-bicyclo[3.1.0]hex-2-enyl]-1,2,4-oxadiazol-5-yl]methyl]purin-6-one] | 8.16 | 8.34 | –
4 | Cn1cnc2ncn(Cc3nc([C@H]4[C@@H]5C=C(c6cc(F)cc(F)c6)C[C@@H]54)no3)c(=O)c21 [Example Compound 270, 7-methyl-1-[[3-[(1S,5S,6R)-3-(3,5-difluorophenyl)-6-bicyclo[3.1.0]hex-2-enyl]-1,2,4-oxadiazol-5-yl]methyl]purin-6-one] | 7.89 | 8.62 | –
5 | Cn1cnc2ncn(Cc3nc([C@H]4[C@@H]5CN(c6cc(F)c(Cl)c(F)c6)C[C@@H]54)no3)c(=O)c21 [Example Compound 271, 7-methyl-1-[[3-[(1S,5R)-3-(4-chloro-3,5-difluoro-phenyl)-3-azabicyclo[3.1.0]hexan-6-yl]-1,2,4-oxadiazol-5-yl]methyl]purin-6-one] | 7.46 | 7.96 | –
6 | O=c1c2ccc(Cl)nc2ncn1Cc1nc([C@H]2[C@@H]3CN(c4cccc(F)c4)C[C@@H]32)no1 [Example Compound 272, 7-chloro-3-[[3-[(1R,5S)-3-(3-fluorophenyl)-3-azabicyclo[3.1.0]hexan-6-yl]-1,2,4-oxadiazol-5-yl]methyl]pyrido[2,3-d]pyrimidin-4-one] | 7.23 | 7.46 | –
7 | O=c1c2cccc(=O)n2ccn1Cc1nc([C@@H]2[C@H]3C=C(c4ccccc4)C[C@H]32)no1 [Example Compound 275, 2-[[3-[(1R,5R,6S)-3-phenyl-6-bicyclo[3.1.0]hex-2-enyl]-1,2,4-oxadiazol-5-yl]methyl]pyrido[1,2-a]pyrazine-1,6-dione] | 7.92 | 8.19 | –
8 | Cn1cnc2ncn(Cc3nc([C@H]4[C@@H]5CN(c6ccc(Cl)cc6F)C[C@@H]54)no3)c(=O)c21 [Example Compound 276, 7-methyl-1-[[3-[(1S,5R)-3-(4-chloro-2-fluorophenyl)-3-azabicyclo[3.1.0]hexan-6-yl]-1,2,4-oxadiazol-5-yl]methyl]purin-6-one] | 7.82 | 8.13 | –
9 | Cn1cnc2ncn(Cc3nc([C@@H]4[C@H]5C=C(c6ccc(-c7cnco7)cc6)C[C@H]54)no3)c(=O)c21 [Example Compound 277, 7-methyl-1-[[3-[(1R,5R,6S)-3-(4-oxazol-5-ylphenyl)-6-bicyclo[3.1.0]hex-2-enyl]-1,2,4-oxadiazol-5-yl]methyl]purin-6-one] | – | – | pIC50 (compounds incubated 10 minutes at room temperature before cinnamaldehyde agonist): 7.77; pIC50 (compounds incubated 90 minutes at room temperature before cinnamaldehyde agonist): 7.96
10 | Cn1cnc2ncn(Cc3nc([C@H]4[C@@H]5C=C(c6ccc7ncsc7c6)C[C@@H]54)no3)c(=O)c21 [Example Compound 278, 7-methyl-1-[[3-[(1S,5S,6R)-3-(1,3-benzothiazol-6-yl)-6-bicyclo[3.1.0]hex-2-enyl]-1,2,4-oxadiazol-5-yl]methyl]purin-6-one] | 7.80 | 8.51 | –
11 | O=c1c2cccnc2cnn1Cc1nc([C@H]2[C@@H]3CN(c4ccc5ncsc5c4)C[C@@H]32)no1 [Example Compound 279, 6-[[3-[(1R,5S)-3-(1,3-benzothiazol-6-yl)-3-azabicyclo[3.1.0]hexan-6-yl]-1,2,4-oxadiazol-5-yl]methyl]pyrido[2,3-d]pyridazin-5-one] | 7.95 | 8.25 | –
12 | Cn1cnc2ncn(Cc3nc([C@@H]4[C@H]5C=C(c6cccc(-c7cnco7)c6)C[C@H]54)no3)c(=O)c21 [Example Compound 280, 7-methyl-1-[[3-[(1R,5R,6S)-3-(3-oxazol-5-ylphenyl)-6-bicyclo[3.1.0]hex-2-enyl]-1,2,4-oxadiazol-5-yl]methyl]purin-6-one] | 7.34 | 7.40 | –
13 | Cn1cnc2ncn(Cc3nc([C@@H]4[C@H]5C=C(c6ccc(C(F)F)cc6)C[C@H]54)no3)c(=O)c21 [Example Compound 281, 7-methyl-1-[[3-[(1R,5R,6S)-3-[4-(difluoromethyl)phenyl]-6-bicyclo[3.1.0]hex-2-enyl]-1,2,4-oxadiazol-5-yl]methyl]purin-6-one] | 7.17 | 7.46 | –
14 | Cn1cnc2ncn(Cc3nc([C@@H]4[C@H]5C=C(c6cccc(F)c6F)C[C@H]54)no3)c(=O)c21 [Example Compound 282, 7-methyl-1-[[3-[(1R,5R,6S)-3-(2,3-difluorophenyl)-6-bicyclo[3.1.0]hex-2-enyl]-1,2,4-oxadiazol-5-yl]methyl]purin-6-one] | – | – | pIC50 (read-out: hTRPA1 IC50 (10 min), compounds incubated 10 minutes at room temperature before cinnamaldehyde agonist, listed as 282): 7.77; pIC50 (read-out: hTRPA1 IC50 (90 min), compounds incubated 90 minutes at room temperature before cinnamaldehyde agonist, listed as 282): 8.51
15 | Cn1cnc2ncn(Cc3nc([C@@H]4[C@H]5C=C(c6ccc(C#N)c(F)c6)C[C@H]54)no3)c(=O)c21 [Example Compound 283, 2-fluoro-4-[(1R,5R,6S)-6-[5-[(7-methyl-6-oxo-purin-1-yl)methyl]-1,2,4-oxadiazol-3-yl]-3-bicyclo[3.1.0]hex-2-enyl]benzonitrile] | 7.71 | 8.28 | –
